This passage reports mass density results from the NIST ThermoML archive (doi:10.1016/j.fluid.2018.04.020).

For this series the following is noted: 101.33 kPa, Liquid, Vibrating tube method.

Numbers after ± are expanded uncertainties.

`CCCC[n+]1ccc(C)cc1.N#CC(=C=[N-])C#N` [1-butyl-4-methylpyridinium tricyanomethanide]: the mass density (293.15 K) is recorded as 1038.3 ± 2.2 kg/m3, the mass density (303.15 K) amounted to 1032.1 ± 2.2 kg/m3, the mass density (313.15 K) worked out at 1025.7 ± 2.2 kg/m3 and the mass density (323.15 K) is given as 1019.7 ± 2.2 kg/m3.

As to `CCCC[N+]1(C)CCCC1.N#CC(=C=[N-])C#N` [1-butyl-1-methylpyrrolidinium tricyanomethanide], the mass density runs as follows: (293.15 K) 1008.9 ± 2.2 kg/m3; (303.15 K) 1003 ± 2.1 kg/m3; (313.15 K) 997.3 ± 2.1 kg/m3; (323.15 K) 991.4 ± 2.1 kg/m3.

In general, mass density refers to the mass of a sample divided by its volume.
